Experimental findings from ChEMBL document CHEMBL3804756 (J Med Chem, 2016) are described below.

Molecules are shown by their SMILES. Some results are limits rather than exact numbers.

The target in test [1] is T1, Histamine H1 receptor (Homo sapiens, UniProt P35367). Description: Displacement of [3H]mepyramine from human histamine H1 receptor expressed in sf9 cell membrane co-expressing RGS4 incubated for 60 mins by liquid scintillation counting method. On the technique in general: In a radioligand displacement assay an active substance lowers the binding of a labelled ligand.
T1 sequence (P35367 whole entry): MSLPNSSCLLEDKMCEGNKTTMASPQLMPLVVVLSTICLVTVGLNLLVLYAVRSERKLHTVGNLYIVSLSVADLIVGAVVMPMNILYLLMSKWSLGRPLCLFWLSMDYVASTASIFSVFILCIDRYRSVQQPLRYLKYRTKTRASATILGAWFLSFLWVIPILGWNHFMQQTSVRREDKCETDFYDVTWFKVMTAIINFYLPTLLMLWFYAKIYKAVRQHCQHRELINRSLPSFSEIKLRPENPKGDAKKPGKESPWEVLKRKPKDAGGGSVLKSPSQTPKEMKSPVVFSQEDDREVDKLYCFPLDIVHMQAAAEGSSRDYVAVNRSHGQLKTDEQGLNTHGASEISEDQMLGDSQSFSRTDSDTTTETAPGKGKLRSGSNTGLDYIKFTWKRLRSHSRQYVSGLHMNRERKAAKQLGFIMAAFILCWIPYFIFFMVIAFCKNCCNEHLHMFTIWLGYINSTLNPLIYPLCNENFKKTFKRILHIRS

Test [2] deals with T2, Histamine H2 receptor (Homo sapiens, UniProt P25021). Briefly: Displacement of [3H]tiotidine from human histamine H2 receptor expressed in sf9 cell membrane co-expressing Gsalphas incubated for 60 mins by liquid scintillation counting method.
T2 sequence (P25021 whole entry): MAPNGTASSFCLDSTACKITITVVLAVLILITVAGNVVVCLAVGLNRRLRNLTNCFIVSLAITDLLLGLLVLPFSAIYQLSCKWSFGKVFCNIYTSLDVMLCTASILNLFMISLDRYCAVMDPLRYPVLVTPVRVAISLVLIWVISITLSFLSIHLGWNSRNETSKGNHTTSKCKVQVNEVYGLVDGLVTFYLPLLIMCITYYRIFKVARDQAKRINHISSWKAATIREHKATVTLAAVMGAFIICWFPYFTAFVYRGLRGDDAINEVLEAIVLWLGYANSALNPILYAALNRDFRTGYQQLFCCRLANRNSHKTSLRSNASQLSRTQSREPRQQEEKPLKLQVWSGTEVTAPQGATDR
The target in test [3] is T3, Histamine H3 receptor (Homo sapiens, UniProt Q9Y5N1). Description: Agonist activity at human histamine H3 receptor expressed in sf9 cell membrane co-expressing mammalian Galphai2 and Gbeta1gamma2 incubated for 90 mins by [35S]GTPgammaS binding assay. It is filed as functional. Background: GTPγS is a poorly hydrolysed GTP analogue; its binding reports G protein activation.
T3 sequence (Q9Y5N1 whole entry): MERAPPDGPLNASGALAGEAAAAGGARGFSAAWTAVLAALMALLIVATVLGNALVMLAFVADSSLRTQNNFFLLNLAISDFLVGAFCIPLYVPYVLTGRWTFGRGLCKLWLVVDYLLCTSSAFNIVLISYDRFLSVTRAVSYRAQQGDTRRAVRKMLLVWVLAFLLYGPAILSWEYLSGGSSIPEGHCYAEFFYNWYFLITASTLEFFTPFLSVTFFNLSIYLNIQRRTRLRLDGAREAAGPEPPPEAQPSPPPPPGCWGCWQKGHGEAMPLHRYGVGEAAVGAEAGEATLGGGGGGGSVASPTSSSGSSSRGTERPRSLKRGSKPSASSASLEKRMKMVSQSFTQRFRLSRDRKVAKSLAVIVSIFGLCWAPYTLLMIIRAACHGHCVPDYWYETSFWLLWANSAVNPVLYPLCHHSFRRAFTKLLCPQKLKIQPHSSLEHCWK

Test [4] concerns the target T3, Histamine H3 receptor. Description: Displacement of [3H]N-alpha-methylhistamine from human histamine H3 receptor expressed in sf9 cell membrane co-expressing mammalian Galphai2 and Gbeta1gamma2 incubated for 60 mins by liquid scintillation counting method.
For test [5], the target named is T4, Histamine H4 receptor (Homo sapiens, UniProt Q9H3N8). Briefly: Agonist activity at human histamine H4 receptor expressed in sf9 cell membrane co-expressing mammalian Galphai2 and Gbeta1gamma2 incubated for 90 mins by [35S]GTPgammaS binding assay. It is filed as functional.
T4 sequence (Q9H3N8 whole entry): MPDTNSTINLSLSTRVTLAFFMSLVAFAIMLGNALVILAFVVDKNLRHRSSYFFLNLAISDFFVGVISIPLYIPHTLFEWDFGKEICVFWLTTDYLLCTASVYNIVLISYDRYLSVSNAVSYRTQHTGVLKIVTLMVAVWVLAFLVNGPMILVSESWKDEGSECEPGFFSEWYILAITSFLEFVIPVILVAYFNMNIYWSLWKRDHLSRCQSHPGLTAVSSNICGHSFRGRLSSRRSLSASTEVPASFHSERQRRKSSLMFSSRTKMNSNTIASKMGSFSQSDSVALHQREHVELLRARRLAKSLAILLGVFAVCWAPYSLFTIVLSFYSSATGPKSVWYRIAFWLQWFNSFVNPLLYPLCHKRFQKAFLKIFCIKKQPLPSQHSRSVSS
Test [6] addresses T4, Histamine H4 receptor. Briefly: Displacement of [3H]UR-PI294 from human histamine H4 receptor expressed in sf9 cell membrane co-expressing mammalian Galphai2 and Gbeta1gamma2 incubated for 60 mins by liquid scintillation counting method.
In test [7] the target is T4, Histamine H4 receptor. Description: Agonist activity at human SF-His6-tagged histamine H4 receptor expressed in HEK293 cells assessed as inhibition of forskolin-stimulated response incubated for 5 hrs by luciferase reporter gene assay. The format is cell-based.
Test [8] has as its target T5, Histamine H4 receptor (Mus musculus, UniProt Q91ZY2).
T5 sequence (Q91ZY2 whole entry): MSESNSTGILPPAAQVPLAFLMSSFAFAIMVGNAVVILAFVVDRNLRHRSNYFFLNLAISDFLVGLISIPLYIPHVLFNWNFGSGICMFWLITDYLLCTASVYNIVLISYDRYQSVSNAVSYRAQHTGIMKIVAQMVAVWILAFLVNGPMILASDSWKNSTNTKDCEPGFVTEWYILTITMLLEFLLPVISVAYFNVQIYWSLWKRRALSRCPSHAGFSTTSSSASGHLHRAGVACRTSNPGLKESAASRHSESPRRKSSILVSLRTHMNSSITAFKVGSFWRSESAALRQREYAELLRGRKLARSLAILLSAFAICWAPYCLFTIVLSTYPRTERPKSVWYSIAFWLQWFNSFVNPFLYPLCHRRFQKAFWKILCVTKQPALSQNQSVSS
Briefly: Agonist activity at mouse SF-His6-tagged histamine H4 receptor expressed in HEK293 cells assessed as inhibition of forskolin-stimulated response incubated for 5 hrs by luciferase reporter gene assay. It is filed as cell-based. On the technique in general: In a reporter assay the amount or activity of a reporter protein is the signal.

The target of test [9] is T2, Histamine H2 receptor. Description: Antagonist activity at human histamine H2 receptor expressed in sf9 cell membrane co-expressing Gsalphas assessed as inhibition of histamine-induced [35S]GTPgammaS binding incubated for 90 mins. The format is functional.
Test [10] has as its target T2, Histamine H2 receptor. Description: Intrinsic activity at human histamine H2 receptor expressed in sf9 cell membrane co-expressing Gsalphas at 10 uM incubated for 90 mins by [35S]GTPgammaS binding assay relative to histamine. It is filed as functional.
Test [11] addresses T3, Histamine H3 receptor. Briefly: Antagonist activity at human histamine H3 receptor expressed in sf9 cell membrane co-expressing mammalian Galphai2 and Gbeta1gamma2 assessed as inhibition of histamine-induced [35S]GTPgammaS binding incubated for 90 mins. The format is functional.
In test [12] the target is T3, Histamine H3 receptor. Briefly: Intrinsic activity at human histamine H3 receptor expressed in sf9 cell membrane co-expressing mammalian Galphai2 and Gbeta1gamma2 at 10 uM incubated for 90 mins by [35S]GTPgammaS binding assay relative to histamine. The format is functional.
Test [13] concerns the target T6, Histamine H4 receptor (Mus musculus) (UniProt Q91ZY2).
T6 sequence (whole entry): T5 sequence (Q91ZY2 whole entry)
Description: Intrinsic activity at mouse SF-His6-tagged histamine H4 receptor expressed in HEK293 cells assessed as inhibition of forskolin-stimulated response incubated for 5 hrs by luciferase reporter gene assay relative to histamine. It is filed as cell-based.

Test [14] addresses T2, Histamine H2 receptor. Description: Agonist activity at human histamine H2 receptor expressed in sf9 cell membrane co-expressing Gsalphas incubated for 90 mins by [35S]GTPgammaS binding assay. It is filed as functional.
The target of test [15] is T1, Histamine H1 receptor. Briefly: Antagonist activity at human histamine H1 receptor expressed in sf9 cell membrane co-expressing RGS4 assessed as inhibition of histamine-induced increase in 32Pi level preincubated for 2 mins followed by [gamma-32P]GTP addition measured after 20 mins by liquid scintillation counting method.
Test [16] addresses T3, Histamine H3 receptor. Briefly: Displacement of [3H]N-alpha-methylhistamine from human histamine H3 receptor expressed in human SK-N-MC cells incubated for 40 mins. It is filed as cell-based.
The target in test [17] is T4, Histamine H4 receptor. Briefly: biochemical. It is filed as cell-based, SK-N-MC.

On to `CN/C(=N\C#N)NC[C@H]1CC[C@H](c2c[nH]cn2)C1`, for which the inhibition constant Ki in test [1] (sf9) was greater than 10000 nM; in [2], greater than 10000 nM; in test [4] it was 958 nM; in test [6], 98 nM. The EC50 in test [3] amounted to 994 nM; in test [5], 100 nM; in [7] it was 63 nM; in test [8], 538 nM.
`N#C/N=C(/NCCSc1ccccc1)NC[C@@H]1CC[C@@H](c2c[nH]cn2)C1`: the Ki was determined as 7910 nM in test [1], 9820 nM in test [2], 590 nM in test [4] and 1050 nM in test [6]. Further, the Kb in [9] was greater than 10000 nM; in test [11], 143 nM. Besides, the Intrinsic activity is 0 in [10], -0.21 in test [12] and 0.29 in [13]. Further, the EC50 in test [7] turned out to be 500 nM; in [8], 589 nM.
Take `N#C/N=C(/NCCSc1ccccc1)NC[C@H]1CC[C@H](c2c[nH]cn2)C1`: the Ki was 6520 nM in test [1], 10300 nM in [2], 2130 nM in [4] and 22 nM in test [6]. For the same molecule, the EC50 in test [5] is 11 nM; in test [7], 25 nM; in test [8], 166 nM.
On to `CN/C(=N\C#N)NC[C@@H]1CC[C@@H](c2c[nH]cn2)C1`, for which the Ki in test [1] was greater than 10000 nM; in test [2], greater than 10000 nM; in test [4] it was 5680 nM; in test [6] it was 870 nM. The Kb in [9] is greater than 10000 nM. In addition, the Intrinsic activity was determined as 0 in test [10], 0.29 in test [12] and 0.96 in test [13]. Further, the EC50 in [3] worked out at 9200 nM; in [5], 1100 nM; in [8] it was 3630 nM.
With `NC[C@H]1CC[C@H](c2c[nH]cn2)C1` (racemic), the Ki in [1] is greater than 10000 nM. In addition, the Intrinsic activity in test [10] and in test [12] was 0 in each case. Also, the Kb in [11] came out at 103 nM. For the same molecule, the results for the EC50 in test [14] and in test [5] were greater than 10000 nM and 1710 nM, respectively.
For the molecule `NC[C@@H]1CC[C@H](c2c[nH]cn2)C1` (racemic), the Ki in [1] is greater than 10000 nM. In addition, the Intrinsic activity is 0.19 in test [10] and 0 in [12]. Further, the Kb in [11] was 62 nM. Also, the half-maximal effective concentration (EC50) in test [14] is greater than 10000 nM; in test [5], 150 nM.
As for `N#C/N=C(/NCCSc1ccccc1)NC[C@@H]1CC[C@H](c2c[nH]cn2)C1` (racemic), the Kb in test [9] is greater than 10000 nM; in [11], 162 nM; in test [15] it was 3800 nM. In addition, the Intrinsic activity in [10] was 0; in test [12] it was -0.34.
For `N#C/N=C(/NCCSc1ccccc1)NC[C@H]1CC[C@H](c2c[nH]cn2)C1` (racemic), in that order: greater than 10000 nM, 246 nM, 6000 nM, 0 and -0.4.
Consider `NCCCCc1c[nH]cn1` [IMBUTAMINE], for which the Ki in test [16] came out at 4.3 nM; in test [17], 12.7 nM.

By Ki is commonly meant the dissociation constant of the complex between target and ligand, obtained from inhibition or displacement. Low values mean a stronger hold on the target, high ones a looser hold on the target. The term EC50 denotes the concentration at which the effect is half-maximal. Usually Kb stands for the equilibrium dissociation constant of an antagonist, usually derived from a functional assay.
